The text below walks through data of patent publication US20220304950A1, “[…] THE TREATMENT OF PATIENTS WITH MAJOR DEPRESSIVE DISORDER, INCLUDING SUICIDALITY” (JANSSEN PHARMACEUTICALS, INC., priority 2019, published 2022).

The test system of assay [1] is adult patients with MDD assessed to be at imminent risk for suicide. Briefly: CGI-SS-R subgroup analysis by prior suicide attempt, Examples 4 and 5. In kind it is in vivo, human. The settings on record: 24 hours after the first dose. The source says:
FIG. 17 is a forest plot for the prior suicide attempt sub-group analysis using CGI-SS-R for Examples 4 and 5.
In certain aspects, the disclosure relates to methods for reducing symptoms of major depressive disorder, including suicidality, in a human patient assessed to be at imminent risk for suicide comprising the administration of esketamine in addition to standard of care treatment. As reflected in the reported data, for depressive symptoms, the treatment differences favored the administration of esketamine plus standard of care treatment over standard of care treatment alone. In addition, treatment differences between patients that previously attempted suicide (attempters) and those that had not (non-attempters) were also present (see, e.g., data reflected in FIGS. 9-17). […] Improvement in this population is of clinical relevance considering that prior suicide attempt has been identified as the single most important predictor/risk factor for suicide in subjects with MDD.

Assay [2] shares this test system. Briefly: MADRS total score, Study 2 (Example 5). Format: in vivo, human. The settings on record: 24 hours post first dose. The source says:
The primary efficacy evaluation will be the MADRS total score. The MADRS will be performed using the Structured Interview Guide for the Montgomery Asberg Depression Rating Scale. The MADRS is a clinician-rated scale designed to be used in subjects with MDD to measure depression severity and detect changes due to antidepressant treatment. The test consists of 10 items, each of which is scored from 0 (item not present or normal) to 6 (severe or continuous presence of the symptoms), for a total possible score of 60. Higher scores represent a more severe condition. The MADRS evaluates apparent sadness, reported sadness, inner tension, sleep, appetite, concentration, lassitude, interest level, pessimistic thoughts, and suicidal thoughts.
The typical recall period for the MADRS is 7 days. In this study, the MADRS will also be administered using a since last assessment recall, a 4-hour recall on Day 1 and Day 25 postdose, and a 24-hour recall on Day 2. For the MADRS performed at 4 hours postdose on Days 1 and 25, the MADRS scores for the sleep item recorded predose on the same day will be carried forward.
The primary objective is to compare the efficacy of ESK+SOC to that of PBO+SOC in reducing the symptoms of MDD, including suicidal ideation, as measured by the change from baseline on the MADRS total score at 24 hours post-first dose. […]
Primary efficacy variable/Primary timepoint: Change in MADRS total score from baseline to 24 hours post first dose (Day 2). The MADRS consists of 10 items that cover all of the core depressive symptoms: each item is scored from 0 (symptom is not present or is normal) to 6 (severe or continuous presence of the symptom). A total score (0 to 60) is calculated by summing the scores of all 10 items. […]

For the molecule `CN[C@]1(c2ccccc2Cl)CCCCC1=O` [esketamine, (S)-2-(2-chlorophenyl)-2-(methylamino)cyclohexanone], the “Odds ratio (95% CrI) for an improved CGI-SS-R score relative to placebo+SOC” value in assay [1] (subjects with history of prior suicide attempt (FIG. 17)) is reported as 2.09 (1.06; 4.23); in assay [1] (subpopulation without prior suicide attempt (FIG. 17)), 1.14 (0.46; 2.83). The “Effect size for the primary endpoint (MADRS)” value in assay [2] was 0.35. Besides, the “MADRS total score change, least-square mean difference (SE) vs placebo+SOC” value in assay [2] (ANCOVA LOCF) is reported as −3.9 (1.39). Moreover, in assay [2] (esketamine 84 mg+SOC), the “MADRS total score, change from baseline to Day 2 (LOCF), mean (SD)” value is listed as −15.7 (11.56).
